SMILES strings stand for the structures.

For orientation: IC50 means the point on the concentration scale where inhibition reaches its midpoint.

T1 sequence (P51812 whole entry): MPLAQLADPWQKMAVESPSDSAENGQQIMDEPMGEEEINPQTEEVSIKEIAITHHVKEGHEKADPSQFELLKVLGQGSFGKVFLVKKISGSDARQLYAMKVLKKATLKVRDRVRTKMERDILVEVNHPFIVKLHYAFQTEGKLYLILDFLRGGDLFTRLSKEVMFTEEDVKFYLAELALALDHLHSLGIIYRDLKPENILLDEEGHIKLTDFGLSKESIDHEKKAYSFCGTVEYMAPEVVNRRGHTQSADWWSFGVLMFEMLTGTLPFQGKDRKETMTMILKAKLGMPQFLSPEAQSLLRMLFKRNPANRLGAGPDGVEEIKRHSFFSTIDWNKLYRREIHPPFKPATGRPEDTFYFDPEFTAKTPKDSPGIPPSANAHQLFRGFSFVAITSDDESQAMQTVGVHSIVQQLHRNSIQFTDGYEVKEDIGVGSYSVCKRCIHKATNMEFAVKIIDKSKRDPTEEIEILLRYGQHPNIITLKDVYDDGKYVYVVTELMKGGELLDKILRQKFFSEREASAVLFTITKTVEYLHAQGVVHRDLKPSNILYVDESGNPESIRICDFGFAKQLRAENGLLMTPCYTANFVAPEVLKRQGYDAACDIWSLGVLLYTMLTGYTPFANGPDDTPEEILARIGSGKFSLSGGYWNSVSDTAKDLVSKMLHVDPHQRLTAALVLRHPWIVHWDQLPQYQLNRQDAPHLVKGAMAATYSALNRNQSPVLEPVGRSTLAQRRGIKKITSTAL

This experiment addresses T1, His-tagged full-length RSK2 (RPS6KA3) (Homo sapiens, UniProt P51812).
T1 construct: His-tagged full-length RSK2 (RPS6KA3, Invitrogen PV3323); His; purchased Invitrogen PV3323
Briefly: RSK2 Omnia Assay for compound IC50 determination. It is filed as biochemical. The following applies: ATP 15 μM, n=2, read-out: Mean RSK2 Biochem IC50. Here is the method:
RSK1 & RSK2 Omnia Assay Protocol for Compound IC50 Determination
The Omnia Assay (Invitrogen) has been optimized for His-tagged full length RSK1 (RPS6KA1, Millipore 14-509) and for His-tagged full-length RSK2 (RPS6KA3, Invitrogen PV3323). In this assay system, Omnia ST Peptide 6 (Invitrogen KNZ1061) functions as a substrate for RSK1 or RSK2. Phosphorylation of this SOX-containing peptide results in an increase in fluorescence at 485 nm upon excitation at 360 nm.
Assays are carried out in 384-well OptiPlates (Perkin Elmer 6007290) in a total volume of 20 μL containing RSK1 ([…]) or RSK2 ([…]), Omnia ST Peptide 6 (5 μM), ATP (15 μM, Km=16.3 μM), and test compound (variable) in RSK assay buffer (50 mM HEPES, pH 7.5, 10 mM MgCl2, 0.01% Tween-20, 1% glycerol, 1 mM DTT, 1 mM EGTA, 0.01% BSA) with 1% DMSO.
IC50s for test compounds are typically determined using an 11-point three-fold serial dilution with a final assay concentration ranging either from 170 μM to […] or from 17 μM to […]. All compound concentrations are assayed in duplicate. Initial compound dilutions are prepared at 100× concentration in 100% DMSO from a 10 mM stock solution. Compounds are further diluted 1:25 in assay buffer resulting in a 4× concentrated solution.
To run the assay 5 μL of the above 4× concentrated compound solution (or 4% DMSO for positive controls) is added to the assay plate followed by 5 μL of a solution containing peptide (20 μM) and ATP (60 μM) in assay buffer. The reaction is initiated by the addition of 10 μL of RSK1 ([…]) or RSK2 ([…]) in assay buffer, or assay buffer alone for negative controls. The increase in fluorescence due to peptide phosphorylation is monitored continuously as a function of time using a Spectramax M5 plate reader (Molecular Devices) equipped with SoftMax Pro software.
The slopes from the linear portion of progress curves are used to determine IC50 values by non-linear curve-fitting to a four-parameter equation using GraphPad Prism (GraphPad Software, Inc.) or XLFit (IDBS). IC50's are determined in duplicate (n=2) and Ki values are calculated from IC50 values using the Cheng-Prusoff equation assuming a competitive mode of inhibition.
Take `CC(C)CCN1c2nc(N[C@H]3CC[C@H](O)CC3)ncc2N(c2ccccc2)C(=O)C1C` (relative stereo) [Example 11, 2-[(trans-4-hydroxycyclohexyl)amino]-7-methyl-8-(3-methylbutyl)-5-phenyl-7,8-dihydropteridin-6(5H)-one]: the IC50 is over 1000 nM.

Turning to `CC(C)CCN1c2nc(N[C@H]3CC[C@@H](O)CC3)ncc2N(c2ccccc2)C(=O)C1C` (relative stereo) [Example 12, 2-[(cis-4-hydroxycyclohexyl)amino]-7-methyl-8-(3-methylbutyl)-5-phenyl-7,8-dihydropteridin-6(5H)-one], the IC50 is over 1000 nM.

`CC(C)CCN1c2nc(Nc3ccc4[nH]ncc4c3)ncc2N(c2ccccc2)C(=O)C1C` (stereo not drawn) [Example 1, 2-(1H-indazol-5-ylamino)-7-methyl-8-(3-methylbutyl)-5-phenyl-7,8-dihydropteridin-6(5H)-one]: the half-maximal inhibitory concentration (IC50) is at most 100 nM.

Consider `CC(C)CCN1c2nc(Nc3cc(F)c(O)c(F)c3)ncc2N(c2ccccc2)C(=O)C1C` (stereo not drawn) [Example 2, 2-[(3,5-difluoro-4-hydroxyphenyl)amino]-7-methyl-8-(3-methylbutyl)-5-phenyl-7,8-dihydropteridin-6(5H)-one], for which the concentration for half-maximal inhibition (IC50) was at most 100 nM.

As for `CC(C)CCN1c2nc(Nc3ccc4c(c3)CC(=O)N4)ncc2N(c2ccccc2)C(=O)C1C` (stereo not drawn) [Example 3, 7-methyl-8-(3-methylbutyl)-2-[(2-oxo-2,3-dihydro-1H-indol-5-yl)amino]-5-phenyl-7,8-dihydropteridin-6(5H)-one], the IC50 is at most 100 nM.

On to `CCOP(=O)(Cc1ccc(Nc2ncc3c(n2)N(CCC(C)C)C(C)C(=O)N3c2ccccc2)cc1)OCC` (stereo not drawn) [Example 4, diethyl (4-{[7-methyl-8-(3-methylbutyl)-6-oxo-5-phenyl-5,6,7,8-tetrahydropteridin-2-yl]amino}benzyl)phosphonate], for which the IC50 was over 1000 nM.

On to `CNC(=O)Cc1ccc(Nc2ncc3c(n2)N(CCC(C)C)C(C)C(=O)N3c2ccccc2)cc1` (stereo not drawn) [Example 5, N-methyl-2-(4-{[7-methyl-8-(3-methylbutyl)-6-oxo-5-phenyl-5,6,7,8-tetrahydropteridin-2-yl]amino}phenyl)acetamide], for which the IC50 is 100 to 1000 nM.

For the compound `CC(C)CCN1c2nc(Nc3ccc(CC(=O)N(C)C)cc3)ncc2N(c2ccccc2)C(=O)C1C` (stereo not drawn) [Example 6, N,N-dimethyl-2-(4-{[7-methyl-8-(3-methylbutyl)-6-oxo-5-phenyl-5,6,7,8-tetrahydropteridin-2-yl]amino}phenyl)acetamide], the half-inhibitory concentration (IC50) was in the range of 100 to 1000 nM.

Consider `CNS(=O)(=O)Cc1ccc(Nc2ncc3c(n2)N(CCC(C)C)C(C)C(=O)N3c2ccccc2)cc1` (stereo not drawn) [Example 7, N-methyl-1-(4-{[7-methyl-8-(3-methylbutyl)-6-oxo-5-phenyl-5,6,7,8-tetrahydropteridin-2-yl]amino}phenyl)methanesulfonamide], for which the half-maximal inhibitory concentration (IC50) is over 1000 nM.

As for `CC(C)CCN1c2nc(Nc3ccc(CS(=O)(=O)N(C)C)cc3)ncc2N(c2ccccc2)C(=O)C1C` (stereo not drawn) [Example 8, N,N-dimethyl-1-(4-{[7-methyl-8-(3-methylbutyl)-6-oxo-5-phenyl-5,6,7,8-tetrahydropteridin-2-yl]amino}phenyl)methanesulfonamide], the IC50 was over 1000 nM.

Turning to `COC(=O)c1ccc(Nc2ncc3c(n2)N(CCC(C)C)C(C)C(=O)N3c2ccccc2)cc1` (stereo not drawn) [Example 9, methyl 4-{[7-methyl-8-(3-methylbutyl)-6-oxo-5-phenyl-5,6,7,8-tetrahydropteridin-2-yl]amino}benzoate], the IC50 is over 1000 nM.

On to `COC(=O)c1cccc(Nc2ncc3c(n2)N(CCC(C)C)C(C)C(=O)N3c2ccccc2)c1` (stereo not drawn) [Example 10, methyl 3-{[7-methyl-8-(3-methylbutyl)-6-oxo-5-phenyl-5,6,7,8-tetrahydropteridin-2-yl]amino}benzoate], for which the half-inhibitory concentration (IC50) was over 1000 nM.

As for `CC(C)N1c2nc(Nc3ccc4[nH]ncc4c3)ncc2N(c2ccccc2)C(=O)C1C` (stereo not drawn) [Example 13, 2-(1H-indazol-5-ylamino)-7-methyl-5-phenyl-8-(propan-2-yl)-7,8-dihydropteridin-6(5H)-one], the IC50 fell in the range of 100 to 1000 nM.

Regarding `CC(C)CCN1c2nc(Nc3ccc(C(=O)O)cc3)ncc2N(c2ccccc2)C(=O)C1C` (stereo not drawn) [Example 14, 4-{[7-methyl-8-(3-methylbutyl)-6-oxo-5-phenyl-5,6,7,8-tetrahydropteridin-2-yl]amino}benzoic acid], the IC50 was at most 100 nM.

On to `CC(C)CCN1c2nc(Nc3cccc(C(=O)O)c3)ncc2N(c2ccccc2)C(=O)C1C` (stereo not drawn) [Example 15, 3-{[7-methyl-8-(3-methylbutyl)-6-oxo-5-phenyl-5,6,7,8-tetrahydropteridin-2-yl]amino}benzoic acid], for which the IC50 is over 1000 nM.

As for `CC(C)CCN1c2nc(Nc3ccc4[nH]ncc4c3)ncc2N(c2ccccc2)C(=O)[C@H]1C` [Example 16, (7R)-2-(1H-indazol-5-ylamino)-7-methyl-8-(3-methylbutyl)-5-phenyl-7,8-dihydropteridin-6(5H)-one], the IC50 is at most 100 nM.

`CC(C)CCN1c2nc(Nc3ccc4[nH]ncc4c3)ncc2N(c2ccccc2)C(=O)[C@@H]1C` [Example 17, (7S)-2-(1H-indazol-5-ylamino)-7-methyl-8-(3-methylbutyl)-5-phenyl-7,8-dihydropteridin-6(5H)-one]: the concentration for half-maximal inhibition (IC50) is at most 100 nM.

As to `C[C@@H]1C(=O)N(c2ccccc2)c2cnc(Nc3ccc4[nH]ncc4c3)nc2N1C1CCCCC1` [Example 18, (7R)-8-cyclohexyl-2-(1H-indazol-5-ylamino)-7-methyl-5-phenyl-7,8-dihydropteridin-6(5H)-one], the IC50 was at most 100 nM.

On to `C[C@@H]1C(=O)N(c2ccc(C#N)cc2)c2cnc(Nc3ccc4[nH]ncc4c3)nc2N1C1CCCCC1` [Example 19, 4-[(7R)-8-cyclohexyl-2-(1H-indazol-5-ylamino)-7-methyl-6-oxo-7,8-dihydropteridin-5(6H)-yl]benzonitrile], for which the IC50 was at most 100 nM.

With `C[C@@H]1C(=O)N(c2ccncc2)c2cnc(Nc3ccc4[nH]ncc4c3)nc2N1C1CCCCC1` [Example 20, (7R)-8-cyclohexyl-2-(1H-indazol-5-ylamino)-7-methyl-5-(pyridin-4-yl)-7,8-dihydropteridin-6(5H)-one], the IC50 is at most 100 nM.

As for `C[C@@H]1C(=O)N(c2ccc(Cl)cc2)c2cnc(Nc3ccc4[nH]ncc4c3)nc2N1C1CCCCC1` [Example 21, (7R)-5-(4-chlorophenyl)-8-cyclohexyl-2-(1H-indazol-5-ylamino)-7-methyl-7,8-dihydropteridin-6(5H)-one], the half-inhibitory concentration (IC50) was at most 100 nM.

Regarding `Cc1ccc(N2C(=O)[C@@H](C)N(C3CCCCC3)c3nc(Nc4ccc5[nH]ncc5c4)ncc32)cc1` [Example 22, (7R)-8-cyclohexyl-2-(1H-indazol-5-ylamino)-7-methyl-5-(4-methylphenyl)-7,8-dihydropteridin-6(5H)-one], the IC50 was at most 100 nM.

For `C[C@@H]1C(=O)N(c2ccc(F)cc2)c2cnc(Nc3ccc4[nH]ncc4c3)nc2N1C1CCCCC1` [Example 24, (7R)-8-cyclohexyl-5-(4-fluorophenyl)-2-(1H-indazol-5-ylamino)-7-methyl-7,8-dihydropteridin-6(5H)-one], the IC50 is at most 100 nM.

As for `C[C@@H]1C(=O)N(c2cccc(F)c2)c2cnc(Nc3ccc4[nH]ncc4c3)nc2N1C1CCCCC1` [Example 25, (7R)-8-cyclohexyl-5-(3-fluorophenyl)-2-(1H-indazol-5-ylamino)-7-methyl-7,8-dihydropteridin-6(5H)-one], the IC50 was at most 100 nM.

As to `COc1ccc(N2C(=O)[C@@H](C)N(C3CCCCC3)c3nc(Nc4ccc5[nH]ncc5c4)ncc32)cc1` [Example 26, (7R)-8-cyclohexyl-2-(1H-indazol-5-ylamino)-5-(4-methoxyphenyl)-7-methyl-7,8-dihydropteridin-6(5H)-one], the IC50 is at most 100 nM.

For `C[C@@H]1C(=O)N(c2ccc(C(=O)N(C)C)cc2)c2cnc(Nc3ccc4[nH]ncc4c3)nc2N1C1CCCCC1` [Example 27, 4-[(7R)-8-cyclohexyl-2-(1H-indazol-5-ylamino)-7-methyl-6-oxo-7,8-dihydropteridin-5(6H)-yl]-N,N-dimethylbenzamide], the half-maximal inhibitory concentration (IC50) is at most 100 nM.

Consider `COc1cccc(N2C(=O)[C@@H](C)N(C3CCCCC3)c3nc(Nc4ccc5[nH]ncc5c4)ncc32)c1` [Example 28, (7R)-8-cyclohexyl-2-(1H-indazol-5-ylamino)-5-(3-methoxyphenyl)-7-methyl-7,8-dihydropteridin-6(5H)-one], for which the concentration for half-maximal inhibition (IC50) was at most 100 nM.
